Laboratory results from US20250136543A1, “8-[(2-HYDROXYNAPHTHALEN-1-YL)DIAZENYL]NAPHTHALENE-1,3-DISULFONIC ACID AS AN ANTIOXIDANT COMPOUND” (KING FAISAL UNIVERSITY, priority 2023, published 2025).

Assay: DPPH radical scavenging antioxidant test
Type: biochemical
Settings: 517 nm; for Inhibition (radical scavenging inhibition): 0.2 mL DPPH (0.75 mM), compound 3 μM in ethanol, 30 min incubation in the dark
Experimental: The antioxidant properties of the 8-[(2-hydroxynaphthalen-1-yl)diazenyl]naphthalene-1,3-disulfonic acid were studied by adding 0.2 mL DPPH (0.75 mM)) to compound 8-[(2-hydroxynaphthalen-1-yl)diazenyl]naphthalene-1,3-disulfonic acid (III) (3 μM) in ethanol. After 30 min of incubation in the dark, the absorbance was read against a blank at 517 nm. Ascorbic acid (vitamin C) was used as standard antioxidants (positive control). A blank sample was prepared by 0.2 ml of DPPH in 3 ml ethanol. A negative control sample was run using ethanol instead of the sample. The radical scavenging inhibition was calculated using the following equation: […]
The antioxidant activity for the synthesized compound is listed in Table 1, using Vitamin C as a reference.

Structure (SMILES) | Inhibition (radical scavenging inhibition) [%] | antioxidant potential compared to vitamin C (DPPH in vitro test, vitamin C as positive control)
O=S(=O)(O)c1cc(S(=O)(=O)O)c2c(/N=N/c3c(O)ccc4ccccc34)cccc2c1 [Product III, 8-[(2-hydroxynaphthalen-1-yl)diazenyl]naphthalene-1,3-disulfonic acid] | 54 | high potential as an antioxidant compared to vitamin C
O=C1O[C@H]([C@@H](O)CO)C(O)=C1O [vit c, Ascorbic acid, reference compound] | 74 | –
